Here are results for one compound from patent publication US9096538B2, “Pharmaceutical comprising PPAR agonist” (Senju Pharmaceutical Co., Ltd., priority 2005, dated 2015).

Experiment [1] has as its system rabbit corneal epithelial cell. The experiment is described as follows: Test Example 2: increase in cell number, cultured rabbit corneal epithelial cell, 120 hours (Cell Counting Kit-8). Type of experiment: cell-based. Conditions: no addition group = 100%, average ± standard deviation, N = 5. Here is the method:
A male rabbit (Japanese white, weight: about 1.5 kg, […] LABES Co., Ltd.) was used. The experimental animal was used according to the International Guiding Principles for Biomedical Research Involving Animals.
A rabbit corneal epithelial cell was prepared using the same process as that of (Test example 1).
As the test substance, the following compounds were used. • PPARδ agonist: L-165041 (Sigma-Aldrich) and GW-501516 (Alexis)
For studying the effect of promoting cell proliferation by each test substance, a culture medium prepared by removing a mouse-derived epithelial growth factor (mEGF) attached to RCGM2, from RCGM2, was used as a basal medium, while as a positive control for confirming the effect of promoting cell proliferation, a medium with an mEGF added thereto (basal medium+10 ng/mL mEGF) was used according to instructions of an RCGM2 preparation protocol.
Collagen treatment of the culture dish was performed using the same process as that of (Test Example1).
In the test, a rabbit corneal epithelial cell which had been cultured to subconfluent in a culture dish having a diameter of 10 cm was used. After the culture medium was removed, the bottom of the culture dish was washed two times using D-PBS, to this was added 1 mL of trypsin-EDTA, this was incubated at 37° C. for 5 minutes and thereby, the cell was peeled from the bottom of the culture dish. After incubation, 9 mL of MEM containing 10% FBS was added to the culture dish to stop the enzymatic reaction, and this was subjected to centrifugation at room temperature and 1,500 rpm for 5 minutes to obtain a corneal epithelial cell layer. To the resulting cell was added an appropriate amount of RCGM2 to a cell concentration of 1×10^5 cells/mL to suspend the cell. Each 64 μL of this cell suspension was dispensed in each well at the cell number per bottom area (0.32 cm^2) of the collagen-treated 96-well culture dish for tissue culture of […]. […] After 24 hours from cell seeding, the culture medium was discarded, and each 100 μL of the following culture media were freshly dispensed into each well of the culture dish. • [1] Only basal medium (no addition group) • [2] Basal medium+mEGF (final concentration: 10 ng/mL; positive control group) • [3] Basal medium+L-165041 (final concentration: 0.1 μM and 1 μM) • [4] Basal medium+GW-501516 (final concentration: 0.01 μM and 0.1 μM)
The culture supernatant of each well was removed every 48 hours from exchange of the culture medium containing a test substance, and each 100 μL of the freshly prepared culture medium was dispensed into each well.

For experiment [2], the system named is monkey meibomian gland epithelial cell. The experiment is described as follows: Test Example 3: increase in cell number, cultured monkey meibomian gland epithelial cell (Cell Counting Kit-8). Type of experiment: cell-based, cynomolgus monkey. Conditions: 48 + 48 hours; for Cell proliferation (%): no addition group = 100%, average ± standard deviation, N = 5. Here is the method: A female cynomolgus monkey (Environmental Biological Life Science Research Center) was used. The experimental animal was used according to the International Guiding Principles for Biomedical Research Involving Animals.
A meibomian gland epithelial cell was prepared from a monkey eyelid. An eyelid was isolated, and stored in Dulbecco's phosphate buffered saline (D-PBS; Invitrogen), and this was transferred to a clean bench. The following cell preparation procedures were all performed sterilely.
After the isolated eyelid was immersed in 80% ethanol for 30 seconds, the eyelid was washed with D-PBS with 1% penicillin-streptomycin (Invitrogen) added thereto three times, and transferred to a minimum essential medium (MEM; Invitrogen). A fat tissue and a muscle tissue surrounding a meibomian gland tissue were removed under a stereomicroscope, and this was transferred to MEM containing 0.475 U/mL of collagenase A (Roche Diagnostics) and 2.4 U/mL of dispase II (Roche Diagnostics), and incubated at 37° C. overnight. After completion of incubation, the enzyme-treated tissue was placed again under the stereomicroscope, eyelashes and an eyelid connective tissue were removed, and a meibomian gland tissue was isolated. To the isolated gland tissue was added 1 mL of trypsin-EDTA (Invitrogen), and this was incubated at 37° C. for 5 minutes. After incubation, to this was added 9 mL of MEM containing 10% FBS to stop the enzymatic reaction, then, suction and exhaustion were repeated five times using a 10 mL pipette and, further, five times using an injection syringe equipped with a 21 G injection needle to disperse tissue-constituting cells. […] The cell suspension which had passed through the filter was recovered in a 50 mL centrifuge tube, and subjected to centrifugation at room temperature and 1,500 rpm for 5 minutes. To a cell layer containing an objective cell obtained by centrifugation was added 80 μL of D-PBS containing 0.5% bovine serum albumin (BSA; Sigma-Aldrich) to sufficiently suspend the cell, to this was added 20 μL of Anti-Fibroblast Microbeads (Militenyi Biotec), and this was allowed to stand at room temperature for 30 minutes. After completion of the reaction with an antibody, to this was added 2 mL of D-PBS containing 0.5% BSA, and this was subjected again to centrifugation at room temperature and 1,500 rpm for 5 minutes. To a cell layer containing an objective cell obtained by centrifugation was added 1 mL of D-PBS containing 0.5% BSA to sufficiently suspend the cell, and this was added dropwise to an LD column (Militenyi Biotec) equilibrated in advance using a column washing solution (D-PBS containing 2 mM EDTA (Dojindo Laboratories) and 0.5% BSA). Then, 2 mL of the column washing solution was added dropwise to the LD column. […] The cell recovered in the centrifuge tube was subjected again to centrifugation at room temperature and 1,500 rpm for 5 minutes to remove the supernatant. To this precipitation was added 1 mL of Defined Keratinocyte-Serum Free Medium (DK-SFM; Invitrogen) to suspend the cell and thereby, a meibomian gland epithelial cell suspension was prepared. The prepared cell was seeded on a culture dish (IWAKI) for cell culturing having a diameter of 3.5 cm which had been coated with a type I collagen solution (Nitta Gelatin Inc.) in advance, and to which 3 mL of DK-SFM had been added. The seeded cell was cultured in an incubator (SANYO) set at 37° C., 5% CO2, 95% air, and 100% humidity, and the culture medium was exchanged with a fresh culture medium every 48 hours until the test day.
Each test substance was dissolved in ethanol (Wako Pure Chemical Industries, Ltd.) to a 200-fold concentration of a final concentration in the culture medium, and this was stored at −80° C. until immediately before use.
As a culture dish for a cell proliferation promotion test, a 96-well culture dish for tissue culture (Corning) was used.

Molecules are shown by their SMILES.

`CCCc1c(OCCCOc2ccc(OCC(=O)O)cc2)ccc(C(C)=O)c1O` [L-165041, (4-(3-(4-acetyl-3-hydroxy-2-propyl)phenoxy)propoxyphenoxy)acetic acid]: the “Cell proliferation (%)” value in experiment [1] (10^−6 M) was found to be 198.6 ± 26.7%; in experiment [1] (10^−7 M), 242.5 ± 36.2%; in experiment [2] (10^−6 M), 142.8 ± 5.4%; in experiment [2] (10^−7 M), 136.1 ± 4.7%. Further, the “cell proliferation compared to the no addition group (in words)” value in experiment [2] (p<0.01 where significant) was “significantly higher than in the no addition group”.
